8 substances from PMC5626019 (Nature, 2017) can be followed below.

The subject of one assay is DQB1*05:01. To be noted: competition binding to purified MHC.
In the next assay the test system is DQB1*04:02. To be noted: competition binding to purified MHC.
For the next assay, the system named is PBMC. The assay is described as follows: IFNγ and IL-5 dual ELISPOT after 14 days culture. Type of assay: cell-based, human.
The target in assay [1] is purified HLA A*11:01 molecules (Homo sapiens, UniProt P04439, A114D/D185E/E176A/F33Y/L180Q/S129P/T187R). Briefly: HLA class I competition binding assay. The note with it: for binding, in words: purified HLA A*11:01 in vitro.
Assay [2] deals with 26 common HLA class II alleles. The assay is described as follows: HLA class II competition binding, panel of common alleles. More on the design: species or system human.

No end group written: not given here.

Broadly, the IC50 is the concentration at which inhibition is half-maximal.

Consider DNEAYEMPSEEGYQD, for which the “binding, in words” value in the assay with DQB1*05:01 is reported as “strongly bound”. With EMPSEEGYQDYEPEA, the “binding, in words” value in the assay with DQB1*05:01 and with DQB1*04:02 was “low affinity” each time.

In the case of GKTKEGVLYVGSKTK, in the assay on PBMC (PBMC stimulated 14 days, peptides 5 μg/ml), the “T cell response, in words” value was “apparent Class II restricted IL-5 and IFNγ response”. As for GVLYVGSKTK, in assay [1], the “binding, in words” value is given as “bound poorly”.

Regarding MPVDPDNEAYEMPSE, in assay [2], the “binding, in words” value is recorded as “bound several alleles with lower affinity”.

In the case of VLYVGSKTK, the IC50 in assay [1] turned out to be 161 nM. For the substance VLYVGSKTKK, the “binding, in words” value in assay [1] was “bound poorly”. Regarding “phosphorylated aaS129 aa116MPVDPDNEAYEMPSEaa130: phosphorylated aaS129 epitope”, the “IL-5 responses in PD compared with HC” value in the assay on PBMC (p=0.02, Fisher's exact test, 300 SFC threshold) is on record as “markedly higher”.
